According to ChEMBL document CHEMBL1201862, “PubChem BioAssay data set” (2004):
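1) Cells in 96-well plates. 2) Compound, 48 h, 5 concentrations. 3) Linear interpolation between surrounding doses. 4) Unreached endpoint = highest concentration. Abbreviation: GI50, concentration required for 50% inhibition of growth.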 Calls of active or inactive are those of the source. No stated cut-off is given here; in the data, active = GI50 up to about 1.1 µM and inactive = higher.

Assays:
Test in all cases: growth of human tumour cells (NCI), 48 h
786-0 = test system: 786-0
A549 = test system: A549
DU-145 = test system: DU-145
EKVX = test system: EKVX
HL-60 = test system: HL-60
HOP-62 = test system: HOP-62
HT-29 = test system: HT-29
Hs-578T = test system: Hs-578T
KM12 = test system: KM12
MOLT-4 = test system: MOLT-4
NCI-H460 = test system: NCI-H460
OVCAR-3 = test system: OVCAR-3
OVCAR-4 = test system: OVCAR-4
SF-268 = test system: SF-268
SF-295 = test system: SF-295
SF-539 = test system: SF-539
SK-MEL-28 = test system: SK-MEL-28
SNB-19 = test system: SNB-19
TK-10 = test system: TK-10
UACC-257 = test system: UACC-257

| SMILES | GI50 (786-0) | GI50 (A549) | GI50 (DU-145) | GI50 (EKVX) | GI50 (HL-60) | GI50 (HOP-62) | GI50 (HT-29) | GI50 (Hs-578T) | GI50 (KM12) | GI50 (MOLT-4) | GI50 (NCI-H460) | GI50 (OVCAR-3) | GI50 (OVCAR-4) | GI50 (SF-268) | GI50 (SF-295) | GI50 (SF-539) | GI50 (SK-MEL-28) | GI50 (SNB-19) | GI50 (TK-10) | GI50 (UACC-257) |
| --- | --- | --- | --- | --- | --- | --- | --- | --- | --- | --- | --- | --- | --- | --- | --- | --- | --- | --- | --- | --- |
| O=C(O)CCC(=O)C(=O)O [ALPHA-KETOGLUTARIC ACID] | > 100 µM (inactive) | > 100 µM (inactive) | > 100 µM (inactive) | > 100 µM (inactive) | > 100 µM (inactive) | > 100 µM (inactive) | > 100 µM (inactive) | > 100 µM (inactive) | > 100 µM (inactive) | > 100 µM (inactive) | > 100 µM (inactive) | > 100 µM (inactive) | > 100 µM (inactive) | > 100 µM (inactive) | > 100 µM (inactive) | > 100 µM (inactive) | > 100 µM (inactive) | > 100 µM (inactive) | > 100 µM (inactive) | > 100 µM (inactive) |
| COC(=O)C1=C(C(=O)OC)C2(C)CCC(=O)C1O2 (stereo not drawn) | > 10 µM (inactive) | > 10 µM (inactive) | > 10 µM (inactive) | > 10 µM (inactive) | > 10 µM (inactive) | > 10 µM (inactive) | > 10 µM (inactive) | > 10 µM (inactive) | > 10 µM (inactive) | > 10 µM (inactive) | > 10 µM (inactive) | > 10 µM (inactive) | > 10 µM (inactive) | > 10 µM (inactive) | > 10 µM (inactive) | > 10 µM (inactive) | > 10 µM (inactive) | > 10 µM (inactive) | > 10 µM (inactive) | > 10 µM (inactive) |
| CCCN1CN(c2ccccc2)C2(CCN(CCCC(=O)c3ccc(F)cc3)CC2)C1=O | 5.15 µM (inactive) | 6.61 µM (inactive) | 1.53 µM (inactive) | 14 µM (inactive) | 16.6 µM (inactive) | 2.7 µM (inactive) | 0.631 µM (active) | 13.2 µM (inactive) | 16.3 µM (inactive) | 4.2 µM (inactive) | 12.7 µM (inactive) | 13.8 µM (inactive) | 2.48 µM (inactive) | 5.56 µM (inactive) | 11 µM (inactive) | 4.49 µM (inactive) | 19.2 µM (inactive) | 13.2 µM (inactive) | 6.62 µM (inactive) | 0.405 µM (active) |
| COC(=O)c1ccccc1/C=C1\Cc2c(C)c3c(c(C)c2C1=O)CCC3 | 46.6 µM (inactive) | > 100 µM (inactive) | > 100 µM (inactive) | > 100 µM (inactive) | > 100 µM (inactive) | > 100 µM (inactive) | > 100 µM (inactive) | 24.5 µM (inactive) | > 100 µM (inactive) | > 100 µM (inactive) | > 100 µM (inactive) | > 100 µM (inactive) | 30.1 µM (inactive) | 64.1 µM (inactive) | > 100 µM (inactive) | 88.9 µM (inactive) | > 100 µM (inactive) | > 100 µM (inactive) | > 100 µM (inactive) | > 100 µM (inactive) |
| COC(=O)C(Cc1ccccc1)NP(=O)(O)OCC1OC(n2cc(I)c(=O)[nH]c2=O)CC1O (stereo not drawn) | > 100 µM (inactive) | > 100 µM (inactive) | > 100 µM (inactive) | > 100 µM (inactive) | > 100 µM (inactive) | > 100 µM (inactive) | > 100 µM (inactive) | > 100 µM (inactive) | > 100 µM (inactive) | > 100 µM (inactive) | > 100 µM (inactive) | > 100 µM (inactive) | > 100 µM (inactive) | > 100 µM (inactive) | > 100 µM (inactive) | > 100 µM (inactive) | > 100 µM (inactive) | > 100 µM (inactive) | > 100 µM (inactive) | > 100 µM (inactive) |
| COc1ccc(C(=O)N/N=C2\C(=O)c3c(C)cc(C)cc3CC2(C)C)cc1 | 18.6 µM (inactive) | 19.4 µM (inactive) | 24.2 µM (inactive) | 22.5 µM (inactive) | 18.3 µM (inactive) | 18 µM (inactive) | 18.4 µM (inactive) | 16.3 µM (inactive) | 19.1 µM (inactive) | 11.5 µM (inactive) | 25.6 µM (inactive) | 15.6 µM (inactive) | 27 µM (inactive) | 17.3 µM (inactive) | 19.6 µM (inactive) | 20.5 µM (inactive) | 19.7 µM (inactive) | 27.4 µM (inactive) | 54.2 µM (inactive) | 29.8 µM (inactive) |
| N=C(N)C(/N=N\c1ccccc1)C(=N)N (stereo not drawn) | 35.6 µM (inactive) | 49.9 µM (inactive) | > 100 µM (inactive) | 38.8 µM (inactive) | 24.7 µM (inactive) | 61.7 µM (inactive) | 29.8 µM (inactive) | 48.9 µM (inactive) | 29.4 µM (inactive) | 30.5 µM (inactive) | 32.1 µM (inactive) | 38.5 µM (inactive) | 42.4 µM (inactive) | 59.6 µM (inactive) | 32.9 µM (inactive) | 14.9 µM (inactive) | 49.1 µM (inactive) | 53.7 µM (inactive) | 46.9 µM (inactive) | 33.7 µM (inactive) |
| C=CCN(c1cc(OCc2ccccc2)c(NC(C)=O)cc1[N+](=O)[O-])S(C)(=O)=O | 20.6 µM (inactive) | 33.2 µM (inactive) | > 100 µM (inactive) | 7.05 µM (inactive) | > 100 µM (inactive) | 22 µM (inactive) | > 100 µM (inactive) | 24.2 µM (inactive) | > 100 µM (inactive) | > 100 µM (inactive) | > 100 µM (inactive) | 34.9 µM (inactive) | > 100 µM (inactive) | 21.3 µM (inactive) | 23.5 µM (inactive) | 17.2 µM (inactive) | > 100 µM (inactive) | 17.9 µM (inactive) | 36.5 µM (inactive) | > 100 µM (inactive) |
| COP(=O)(OC)/C(=C/c1cn(C(c2ccccc2)(c2ccccc2)c2ccccc2)cn1)NC=O | 29.4 µM (inactive) | 23.4 µM (inactive) | 21.6 µM (inactive) | 22 µM (inactive) | > 100 µM (inactive) | 17.7 µM (inactive) | 16.4 µM (inactive) | 16 µM (inactive) | 32.9 µM (inactive) | > 100 µM (inactive) | 16.4 µM (inactive) | 14.9 µM (inactive) | 18.2 µM (inactive) | 14.5 µM (inactive) | 13.8 µM (inactive) | 14.4 µM (inactive) | 33.4 µM (inactive) | 35 µM (inactive) | 22.5 µM (inactive) | – |
| COc1cc2oc(=O)ccc2cc1C1OC(=O)C2OC21C (stereo not drawn) | > 100 µM (inactive) | > 100 µM (inactive) | > 100 µM (inactive) | > 100 µM (inactive) | > 100 µM (inactive) | > 100 µM (inactive) | > 100 µM (inactive) | 54.6 µM (inactive) | > 100 µM (inactive) | > 100 µM (inactive) | > 100 µM (inactive) | > 100 µM (inactive) | > 100 µM (inactive) | > 100 µM (inactive) | > 100 µM (inactive) | > 100 µM (inactive) | > 100 µM (inactive) | > 100 µM (inactive) | > 100 µM (inactive) | > 100 µM (inactive) |
| O=[Se](O)O | 2.47 µM (inactive) | 1.15 µM (inactive) | 1.47 µM (inactive) | 2.11 µM (inactive) | 10.4 µM (inactive) | 0.577 µM (active) | 3.17 µM (inactive) | 0.67 µM (active) | 1.63 µM (inactive) | > 20.1 µM (inactive) | 0.762 µM (active) | 4.16 µM (inactive) | 7.06 µM (inactive) | 1.18 µM (inactive) | 0.536 µM (active) | 0.912 µM (active) | 3.27 µM (inactive) | 1.03 µM (active) | 6.67 µM (inactive) | 12.6 µM (inactive) |
| O=c1[nH]n(Cc2ccccc2Cl)c2ccc([N+](=O)[O-])cc12 | 46.6 µM (inactive) | 37.8 µM (inactive) | > 100 µM (inactive) | 58.7 µM (inactive) | 31.6 µM (inactive) | 75.9 µM (inactive) | 72.9 µM (inactive) | 48.9 µM (inactive) | 63.5 µM (inactive) | 35.8 µM (inactive) | 35.6 µM (inactive) | 35.9 µM (inactive) | 78.9 µM (inactive) | 49.9 µM (inactive) | – | 54.2 µM (inactive) | 55.8 µM (inactive) | 80 µM (inactive) | 55.6 µM (inactive) | > 100 µM (inactive) |
| COc1ccc2c(c1)O[C@@H]1C(O)Oc3cc(OC)c(OC)cc3[C@]1(O)C2=O (stereo partly drawn) | > 100 µM (inactive) | 9.1 µM (inactive) | > 100 µM (inactive) | 45.9 µM (inactive) | 32.1 µM (inactive) | > 100 µM (inactive) | 89.9 µM (inactive) | 20.2 µM (inactive) | 79.3 µM (inactive) | 36.6 µM (inactive) | 69 µM (inactive) | > 100 µM (inactive) | 35.1 µM (inactive) | 34.3 µM (inactive) | 24 µM (inactive) | > 100 µM (inactive) | > 100 µM (inactive) | > 100 µM (inactive) | > 100 µM (inactive) | 29 µM (inactive) |
| CC[C@]12CCCN3CCc4c(n(c5ccccc45)C(=O)C1)[C@@H]32 [VINBURNINE] | 10.1 µM (inactive) | 7.5 µM (inactive) | 19.2 µM (inactive) | 46.9 µM (inactive) | 2.65 µM (inactive) | 4.76 µM (inactive) | 3.56 µM (inactive) | 9.33 µM (inactive) | 4.54 µM (inactive) | 12.2 µM (inactive) | 3.72 µM (inactive) | 2.44 µM (inactive) | 18.2 µM (inactive) | 11.6 µM (inactive) | 3.58 µM (inactive) | 7.91 µM (inactive) | > 36.5 µM (inactive) | 14.5 µM (inactive) | 12.5 µM (inactive) | 15.2 µM (inactive) |
